Results reported in patent US20240325548A1, “DYNAMIC BIOACTIVE SCAFFOLDS AND THERAPEUTIC USES THEREOF AFTER CNS INJURY” (Northwestern University, priority 2021, published 2024).

What was measured:
[1] = tested on: murine model of severe spinal cord injury (SCI); test: Angiogenesis at the site of SCI (DiI labelling, BrdU/CD31); type: in vivo, mouse
Protocol: (§1) All experiments were conducted at the Simpson Querrey Institute at Northwestern University. 182 CD1 mice (Charles River) were subjects of this study (N=38 Sham, N=38 IKVAV PA2 alone, N=38 IKVAV PA2+FGF2 PA1, N=38 IKVAV PA2+FGF2 PA2, N=12 IKVAV PA1, N=12 Backbone PA, N=6 IKVAV PA4). The age of animals used in the study was in the range of 10-16 weeks. 8 independent in vivo experiments were carried out (injury+PA injection) and each of the 8 experiments had animals of the exact same age which were injected with at least the 4 main treatment groups: Sham, IKVAV PA2 alone, IKVAV PA2+FGF2 PA1, and IKVAV PA2+FGF2 PA2. Animals were anesthetized using 2.5% isoflurane gas with oxygen. […]
(§2) PAs (dissolved in sterile NaCl 0.9% solution at 1 wt %) were injected 24 h after SCI using a glass capillary micropipette (Sutter Instruments, Novato, CA) (outer diameter, 100 m) coated with Sigmacote (Sigma-Aldrich) to reduce surface tension as described elsewhere (19). […] The micropipette was lowered to a depth of 750 m measured from the dorsal surface of the cord, and 4-6 μL of the diluted amphiphile solution was injected at 1 L/min. […]
To assess in vitro tubulogenesis and in vivo angiogenesis, an ImageJ (Fiji) script was established to automatically calculate 1) area fraction of blood vessels, 2) blood vessels length, and 3) number of branches. Images were processed, binarized and analyzed. […]

[2] = tested on: murine model of severe spinal cord injury (SCI); test: Hindlimb locomotor evaluation after SCI (BMS, footprint analysis); type: in vivo, mouse; conditions: three weeks post-injury
Protocol: as §1
Mice that passed this inclusion criterion were randomized into experimental groups for PA injection and were thereafter evaluated blind to their experimental condition.
as §2
The motor function was evaluated with the locomotor open-field rating scale on the Basso Mouse Scale (BMS). […]

[3] = Diffusion ordered spectroscopy (DOSY), pulse-field gradient NMR; type: physicochemical
Protocol: The diffusion coefficients were measured by pulse-field gradient NMR using the longitudinal eddy-current delay with bipolar pulse pairs pulse sequence with a maximum gradient strength of 53.5 G/cm and 16 values for the gradient strength. The peak intensity I was measured and fit to the Stejskal-Tanner equation: […]
where I0 is the intensity in the absence of the gradient pulse, D is the diffusion coefficient, γ is the proton gyromagnetic ratio, g is the gradient strength, δ is the length of the pulse field gradient pulse (2 ms) and Δ is the diffusion delay (0.1 s).
The […] was calculated from the Stokes-Einstein equation as: […]
where kB is the Boltzmann constant, T is the temperature, and f is the viscosity.
PA materials were mixed (90 mol % of IKVAV PA2+10 mol % FGF2 PAs) and sonicated as described above and then lyophilized. Samples were then dissolved in D2O water and solubilized in 1 equiv. NaOD at a concentration of 6 mM in standard 5 mm NMR tube with 0.25 mM sodium trimethylsilylpropanesulfonate (DSS) as a chemical shift reference and an intensity standard. […] Diffusion coefficients were measured using pulse-field gradient NMR using the stimulated echo pules sequence with a 2 ms gradient pulse and a 100 ms diffusion delay time using a maximum gradient strength of 53 G/cm.

[4] = Negative-stain TEM fiber width; type: physicochemical
Protocol: To prepare the negatively stained TEM specimen, 7 μL of PA sample solution (1 wt % PA prepared in 150 mM NaCl and 3 mM diluted 10 times in MilliQ water) was applied on the shiny side of a glow discharged grid (300 mesh copper with carbon film, Electron Microscopy Sciences), followed by rinsing three times with MilliQ water to remove the excess of salt. The grid was then stained with filtered 2 wt % uranyl acetate aqueous solution and dried in air. TEM imaging was carried out on a JEOL 1230 microscope with a LaB6 filament at 100 kV accelerating voltage, equipped with a Gatan 831 CCD camera. A cold finger was introduced for sample stabilization during imaging.

- Rh ([3]; calculated from Stokes-Einstein equation): 1.4 nm
- D ([3]; diffusion coefficient, DOSY): 1.6 ± 0.01 × 10^−10 m^2/s
- average fiber width [4]: 10.6±0.1 nm
Substance: C16-A2G2E4GIKVAV [IKVAV PA2]
- newly formed blood vessels (number of BrdU+/CD31+ cells) ([1]; 12 weeks after injury): very modest but yet significantly increased
- vascular area fraction, vascular length, and branching ([1]; DiI-labelled vessels, transverse sections): did not differ significantly
- BMS open field locomotor score [2]: 4.3±0.5
